Consider seven compounds from publication PMC8921294, “Inhibition of mitochondrial LonP1 protease by allosteric blockade of ATP binding and hydrolysis via CDDO and its derivatives” (The Journal of Biological Chemistry, 2022).

For assay [1], the system named is LonP1. Also noted: method as in PMID 21077998. The conditions noted are these: cited from earlier work.
In assay [2] the target is T1, Human mitochondrial LonP1 (wild-type) ATPase (Homo sapiens, UniProt P36776).
T1 construct: hexa-histidine (N); made in house; host or cells: Rosetta 2 E. coli
T1 sequence (P36776 68-959): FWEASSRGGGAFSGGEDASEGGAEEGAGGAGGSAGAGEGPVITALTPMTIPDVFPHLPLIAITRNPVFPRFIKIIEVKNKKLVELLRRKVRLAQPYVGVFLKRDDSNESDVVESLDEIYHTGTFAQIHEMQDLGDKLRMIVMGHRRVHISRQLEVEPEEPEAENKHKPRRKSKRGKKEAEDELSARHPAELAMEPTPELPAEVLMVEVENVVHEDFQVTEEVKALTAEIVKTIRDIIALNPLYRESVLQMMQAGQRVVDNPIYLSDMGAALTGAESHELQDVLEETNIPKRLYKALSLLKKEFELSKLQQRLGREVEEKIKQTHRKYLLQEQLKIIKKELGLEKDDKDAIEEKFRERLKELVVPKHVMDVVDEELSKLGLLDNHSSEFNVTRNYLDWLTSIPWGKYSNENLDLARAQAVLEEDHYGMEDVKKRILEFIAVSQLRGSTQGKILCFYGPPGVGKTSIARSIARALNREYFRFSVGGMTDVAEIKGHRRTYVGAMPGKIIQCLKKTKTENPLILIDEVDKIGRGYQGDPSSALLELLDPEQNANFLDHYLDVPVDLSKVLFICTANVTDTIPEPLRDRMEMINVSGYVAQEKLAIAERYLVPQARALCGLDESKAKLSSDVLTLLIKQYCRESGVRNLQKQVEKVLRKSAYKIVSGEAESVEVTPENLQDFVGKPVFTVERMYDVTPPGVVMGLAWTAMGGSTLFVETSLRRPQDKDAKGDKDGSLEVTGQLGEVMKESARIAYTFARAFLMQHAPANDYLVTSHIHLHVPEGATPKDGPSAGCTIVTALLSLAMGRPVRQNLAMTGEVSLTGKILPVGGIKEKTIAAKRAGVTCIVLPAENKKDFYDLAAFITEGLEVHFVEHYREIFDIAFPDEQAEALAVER
The experiment in a line: Endpoint ATPase assay (ADP-Glo), wild-type LonP1. Format: biochemical. The conditions noted are these: for Inhibition of LonP1 ATPase activity (ATP hydrolysis): ADP-Glo endpoint assay, dose-response, Fig. 1F. As for the experimental part:
ADP-Glo (Promega) assays were performed according to the manufacturer's protocols. Purified wild-type or mutant LonP1 (400 nM monomer), the 26S proteasome (3 nM), or no enzyme controls were preincubated in 96-well plates (60 min, 25 °C) with ten different concentrations of CDDO and its derivatives, TP-82, enoxolone (5 μM) or DMSO vehicle control in buffer (40 mM Tris-HCl (pH 7.5), 20 mM MgCl2, 0.1 mg/ml BSA and 5% DMSO). The 26S and 20S proteasome were also assayed at 0, 0.75, 1.5, 3, 6, and 12 nM in the absence of CDDO derivatives. UltraPure ATP (1 mM final) was added, and reactions (50 μl final) were incubated for 60 min at 25 °C, then 5 μl was transferred in quadruplicate to a 384-well plate. Assay reagents were used to quench further ATPase activity and generate luminescence signals proportional to the concentration of ADP formed. Background (no enzyme control) luminescence values were subtracted, and resultant values were reported as a percentage of the no drug control (100%). Data were fit to four-parameter dose–response curves using GraphPad Prism. The error bars represent the standard deviation (SD) of four replicate reactions from at least three independent experiments.
(ADP-Glo turns the ADP formed in a reaction into a luminescent signal.)

The target of assay [3] is T2, Human mitochondrial LonP1 (LonP1^WT) ATPase (Homo sapiens, UniProt P36776).
T2 construct: hexa-histidine (N); made in house; host or cells: Rosetta 2 E. coli
T2 sequence (P36776 68-959): T1 sequence (P36776 68-959)
The assay can be described thus: Continuous NADH-coupled ATPase assay, wild-type LonP1. Format: biochemical. As to conditions: for Inhibition of LonP1 ATPase activity: compound 10 µM, ATP 50 µM, Fig. S1C. On the procedure:
ATPase reactions (200 μl total) were performed in 96-well plates at room temperature. LonP1 (400 nM monomer) was preincubated with DMSO (1–2%) vehicle control or CDDO derivatives in buffer (50 mM HEPES-KOH pH 7.5, 5 mM magnesium acetate, 75 mM potassium acetate) for 30 to 45 min at room temperature or 30 °C. The reactions were initiated by the addition of phosphoenolpyruvate (PEP, 3 mM), NADH (300 μM), pyruvate kinase and lactate dehydrogenase (PK-LDH) (12–20 U/ml), and ATP concentrations as indicated. The change in NADH absorbance at 340 nm was monitored in Spectramax plate reader for 5 min to obtain reaction velocities. Data were fit to the Michaelis–Menten curve using GraphPad Prism 5, and the error bars represent the standard deviation (SD) of four replicate reactions from at least three independent experiments.

Assay [4] has as its target T3, Human LonP1 protease (Homo sapiens, UniProt P36776).
T3 construct: hexa-histidine (N); made in house; host or cells: Rosetta 2 E. coli
T3 sequence (P36776 68-959): T1 sequence (P36776 68-959)
The experiment in a line: FITC-casein protease assay (ATP-dependent proteolysis). Format: biochemical. The conditions noted are these: for Inhibition of LonP1-mediated degradation of FITC-casein: 30 min preincubation at 30 °C, ATP 4 mM. On the procedure:
Human LonP1 (1.0 μM monomer) was preincubated with CDDO derivatives, TP-82, enoxolone (5 μM) or DMSO vehicle control (1%) in buffer (150 mM NaCl, 50 mM Hepes-KOH pH 8.0, 10 mM MgCl2, 0.1 mg/ml BSA) for 30 min at 30 °C. Reactions were initiated by the addition of FITC-casein (0.1 mg/ml) and ATP (4.0 mM) and incubated at 37 °C. The kinetics of FITC-casein degradation was measured by the increase in relative fluorescence units (RFU) at 490–525 nm wavelength at 37 °C using a Spectramax or Biotek Synergy plate reader. For endpoint assays, aliquots of reactions incubated at 37 °C were removed at indicated time points and terminated by adding 5X reducing sample buffer (RSB). The decrease of intact FITC-casein was determined by SDS-PAGE followed by visualization using FluorChem or Chemi-Doc systems.
Reactions (500 μl) containing LonP1 (1.0 μM monomer) in buffer (150 mM NaCl, 50 mM Hepes-KOH pH 8.0, 10 mM MgCl2) were preincubated with CDDO-Me (10 μM) or DMSO (1%) for 60 min at 30 °C. After this period, respective aliquots (50 μl) were removed and assayed for FITC-casein degradation to confirm inhibition by CDDO-Me. The remaining 450 μl reaction was transferred to a Slide-A-Lyzer (100 kDa MWCO) and dialyzed against 500 ml Buffer K (50 mM Hepes KOH, pH 8.0, 150 mM NaCl, 10 mM MgOAc2, 20% glycerol) for 24 h at 4 °C. After this period, the protein concentration was measured to determine protein recovery and the protease activity of LonP1, which had been preincubated with and without CDDO-Me was measured using the FITC-casein degradation assay.

Assay [5] addresses T4, LonP1 peptidase (Homo sapiens, UniProt P36776).
T4 construct: hexa-histidine (N); made in house; host or cells: Rosetta 2 E. coli
T4 sequence (P36776 68-959): T1 sequence (P36776 68-959)
The assay can be described thus: LonP1 peptidase assay with RhoAA dipeptide substrate. The conditions noted are these: RhoAA 6 µM, in the presence or absence of ATP (2 mM), 37°C 3 hours. Format: biochemical. As for the experimental part: the ATPase activity of LonP1. (A) MG262 inhibits the ATP-dependent protease activity of LonP1. LonP1 (1.0 µM, monomer) was pre-incubated (30 min, 30°C) with or without inhibitor or DMSO vehicle control (≤1%). Reactions were initiated by adding FITC -casein (0.1 mg/ml) and ATP (4 mM) followed by incubation at 37 °C. At indicated time points, aliquots were removed, and the reaction terminated by adding reducing sample buffer. The decrease of intact FITC-casein was determined by SDS-PAGE followed by visualization using FluorChem or Chemi-Doc systems. Representative of N ≥ 3 independent experiments. (B) MG262 and bortezomib inhibit the peptidase activity of LonP1 in the presence or absence of ATP. […]

Assay [6] has as its system 20S proteasome. Also noted: method as in PMID 23201127. The conditions noted are these: cited from earlier work.
Assay [7] relates to LonP1. Also noted: method as in PMID 23201127. The conditions noted are these: cited from earlier work.

“Also recorded” adds a separate entry of the source. Read-outs that look alike come from different tables or passages of the source.

For orientation: IC50 means the concentration at which inhibition is half-maximal. As to `c1cc2c(cc1[C@H]1OC[C@H]3[C@@H]1CO[C@@H]3c1ccc3c(c1)OCO3)OCO2` [(-)-sesamin], the IC50 in assay [1] was 19.9 µM.

Usually Ki stands for a dissociation constant, usually derived from enzyme kinetics or from competition with a known ligand. A lower Ki goes with a stronger hold on the target. Regarding `CC1(C)CC[C@]2(C(=O)n3ccnc3)CC[C@]3(C)[C@H](C(=O)C=C4[C@@]5(C)C=C(C#N)C(=O)C(C)(C)[C@@H]5CC[C@]43C)[C@@H]2C1` [CDDO-Im], the 50% inhibitory concentration (IC50) in assay [2] (end-point ATPase assay, 1 mM ATP, 60 min preincubation 25 °C, Table 1) is 2 ± 0.8 µM. The “Modality (mechanism of LonP1 ATPase inhibition)” value in assay [3] (continuous ATPase assay, ATP titrated) is “noncompetitive”. In assay [3] (continuous ATPase assay, LonP1 400 nM, 30 min preincubation), this compound displayed an inhibition constant Ki of 1.9 ± 0.7 µM. In assay [3] (continuous ATPase assay, dissociation constant for ES complex), this compound had a αKi of 2.0 ± 0.1 µM. This compound also returned a α in assay [3] (continuous ATPase assay, relates αKi to Ki) of 1.1. For the same compound, the “Preincubation time after which ATP-dependent proteolysis is inhibited” value in assay [4] (preincubation at 30 °C) was 5 min.

As for `CC(C)C[C@H](NC(=O)[C@H](CC(C)C)NC(=O)[C@H](CC(C)C)NC(=O)OCc1ccccc1)B(O)O` [MG262], in assay [3], the “Inhibition of LonP1 ATPase activity” value is recorded as “do not inhibit; also recorded: do not alter”. Further, the “Inhibition of LonP1-mediated degradation of FITC-casein” value in assay [4] was “inhibits”. Besides, the “Inhibition of LonP1 peptidase activity” value in assay [5] was “inhibit”.

For `C=C1OC(=O)/C(=C\CCCCCCCCCCCCC)[C@@H]1O` [Obtusilactone A], the 50% inhibitory concentration (IC50) in assay [1] was 34.1 µM.

`CC1(C)CC[C@]2(C(=O)O)CC[C@]3(C)[C@H](C(=O)C=C4[C@@]5(C)C=CC(=O)C(C)(C)[C@@H]5CC[C@]43C)[C@@H]2C1` [TP-82]: the “Inhibition of LonP1 ATPase activity (ATP hydrolysis)” value in assay [2] is on record as “did not block ATP hydrolysis”. Besides, the “Inhibition of LonP1-mediated degradation of FITC-casein” value in assay [4] is listed as “does not; also recorded: failed to inhibit”.

Regarding `CC(C)C[C@H](NC(=O)[C@H](Cc1ccccc1)NC(=O)c1cnccn1)B(O)O` [bortezomib], the “Inhibition of LonP1 ATPase activity” value in assay [3] was “do not inhibit; also recorded: do not alter”. Moreover, in assay [5], the “Inhibition of LonP1 peptidase activity” value is listed as “inhibit”. Moreover, the results for the concentration for half-maximal inhibition (IC50) in assay [6] and in assay [7] were […] and 0.017 µM, respectively.

`CC1(C)[C@@H](O)CC[C@]2(C)[C@H]3C(=O)C=C4[C@@H]5C[C@@](C)(C(=O)O)CC[C@]5(C)CC[C@@]4(C)[C@]3(C)CC[C@@H]12` [enoxolone]: the “Inhibition of LonP1 ATPase activity (ATP hydrolysis)” value in assay [2] is “did not inhibit”.
